Experimental data published in patent US7115642B2, “Substituted diphenyl isoxazoles, pyrazoles and oxadiazoles useful for treating HCV infection” (priority 2003, dated 2006).
Where two headings read alike, the source gives them in different places.

How the values were obtained:
[1] = tested on: HCV nonstructural protein NS5A or NS3 in 9–13 replicon cells; assay: Quantitative Western blot assay; type: cell-based, Hepatitis C virus; conditions: read-out: Western IC50
Method: Alternatively, the inhibitory activity of the compounds can be confirmed using a quantitative Western immunoblot assay utilizing antibodies specific for HCV non-structural proteins, such as NS3, NS4A NS5A and NS5B. In one embodiment of this assay, replicon cells are treated with varying concentrations of test compound to determine the concentration of test compound that yields a 50% reduction in the amount of a non-structural protein produced as compared to a control sample (IC50). A single non-structural protein may be quantified or multiple non-structural proteins may be quantified. Antibodies suitable for carrying out such immunoblot assays are available commercially (e.g., from BIODESIGN International, Saco, Me.).
Certain exemplary compounds of the invention were also tested for their ability to inhibit HCV replication using a quantitative Western blot analysis with antibodies specific for the HCV nonstructural protein NS5A or NS3. Actively dividing 9–13 replicon cells were seeded into Swell plates at a density of 1×10^5 cells/well in a volume of 2 ml/well and incubated at 37° C. and 5% CO2 for 24 hours. Various concentrations of test compounds (in a volume of 10 ul) were added to the wells and the cells incubated for another 48 hours. Protein samples were prepared from the cultured cells, resolved on a SDS-PAGE gel and transferred to a nitrocellulose membrane. The membrane was blocked with 5% non-fat milk in PBS for 1 hour at room temperature. Primary antibody (anti NS5A antibody; BIODESIGN International, Saco, Me. or anti NS3 antibody, Rigel) incubation was performed for 1 hour at room temperature, after which the membrane was washed 3 times (for 15 min per time) with PBST (PBS plus 0.1% Tween 20). Horseradish peroxidase conjugated secondary antibody incubation was performed for 1 hour at room temperature and the membrane was washed 3 times (for 15 min per time) with PBST. The membrane was then soaked in substrate solution (Pierce) and exposed to a film or quantified using an imager. In this assay, the amount of test compound that yielded a 50% reduction in the amount of NS5A or NS3 protein translated as compared to a control sample (IC50) was determined.
In TABLE 1, a value of “+” indicates an IC50 of 10 μM or less in the specified assay; a value of “−” indicates an IC50 of greater than 10 μM in the specified assay.

[2] = tested on: HCV replicon (5-2 Luc replicon-comprising cells); assay: HCV replicon assay (luciferase); type: cell-based, Hepatitis C virus; conditions: read-out: Replicon IC50
Method in brief: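 Huh7-derived 5-2 Luc replicon cells seeded 24 h at 37 °C, then exposed to compound at various concentrations for another 24 h. Luciferase quantified by Bright-Glo luminescence; IC50 = concentration giving 50% reduction in luciferase activity; reported as +/− at a 10 μM cut-off.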

[3] = Cytotoxicity assay (Cell Titer Glo); type: cell-based; conditions: human; 48 hr with compound, ATP-dependent Cell Titer Glo assay; read-out: IC50 in cytotoxicity assay (number of viable cells)
Method: Compounds 67, 167, 169, 13, 1, 145, 29, 119, 63, 31, 39, 103, 123, 121, 97, 129, 79, 111, 85, 89, 109, 127, 131, 95, 47, 57, 69, 165, 161, 163, 3, 137, 15, 141, 41, 53, 33, 113, 93, 105, 77, 91, 81, 83, 35, 27, 65, 7, 135, 51, 139, 51, 49, 143, 5, 149, 11, 37, 21, 45, 61, 75, 23, 125, 73, 43, 171 and 101 were tested in a cytotoxicity assay with liver cells including an HCV replicon (5-2 Luc cells, 9–13 cells or Huh-7 cells). In the assay, cells were seeded onto 96-well plates (approx. 7500 cells/well in a volume of 90 μl) and grown for 24 hr at 37° C. On day 2, various concentrations of test compound (in a volume of 10 μl) were added to the wells and the cells were grown for an additional 48 hr at 37° C. On day 4, an ATP-dependent R-Luciferase assay (Cell Titer Glo assay) was performed to determine the number of viable cells.

[4] = Hepatitis C virus, 9–13 replicon cells, NS5A or NS3 Western blot
[5] = Hepatitis C virus, 5-2 Luc replicon cells, luciferase readout
[6] = 9–13 replicon cells, NS5A or NS3 Western blot
[7] = 5-2 Luc replicon cells, luciferase readout

SMILES	IC50 [1, 6]	IC50 [2, 7]	other results
O=C(Nc1cc(-c2cc(-c3c(Cl)cccc3Cl)no2)ccc1F)C(Cl)Cl [Compound 1, 2,2-Dichloro-N-[3-[3-(2,6-dichlorophenyl)-5-isoxazolyl]-6-fluorophenyl]Acetamide]	–	–	IC50 [1, 4]: < 10 µM; IC50 [2, 5]: < 10 µM; IC50 at 48 h [3]: > 10 µM
O=C(Nc1cccc(-c2cc(-c3cccc(Cl)c3Cl)no2)c1)C(Cl)Cl [Compound 3, 2,2-Dichloro-N-[3-[3-(2,3-dichlorophenyl)-5-isoxazolyl]phenyl]Acetamide]	–	–	IC50 [1, 4]: < 10 µM; IC50 [2, 5]: > 10 µM; IC50 at 48 h [3]: > 10 µM
O=C(Nc1cccc(-c2cc(-c3c(Cl)cccc3Cl)on2)c1)C(Cl)Cl [Compound 5, 2,2-Dichloro-N-[3-[5-(2,6-dichlorophenyl)-3-isoxazolyl]phenyl]Acetamide]	–	–	IC50 [1, 4]: < 10 µM; IC50 [2, 5]: < 10 µM; IC50 at 48 h [3]: > 10 µM
O=C(Nc1cccc(-c2cc(-c3c(Cl)cccc3Cl)no2)c1)C(Cl)Cl [Compound 9, 2,2-Dichloro-N-[3-[3-(2,6-dichlorophenyl)-5-isoxazolyl]phenyl]Acetamide]	–	–	IC50 ([1]; Hepatitis C virus): < 10 µM; IC50 ([2]; Hepatitis C virus): < 10 µM; melting point: 167 °C
O=C(Nc1ccc(F)c(-c2cc(-c3c(Cl)cccc3Cl)no2)c1)C(Cl)Cl [Compound 13, 2,2-Dichloro-N-[3-[3-(2,6-dichlorophenyl)-5-isoxazolyl]4-fluorophenyl]Acetamide]	–	–	IC50 [1, 4]: < 10 µM; IC50 [2, 5]: < 10 µM; IC50 at 48 h [3]: > 10 µM
Cc1ccc(F)c(-c2cc(-c3cccc(NC(=O)C(Cl)Cl)c3)on2)c1Cl [Compound 15, 2,2-Dichloro-N-[3-[3-(2-chloro-6-fluoro-3-methylphenyl)-5-isoxazolyl]phenyl]Acetamide]	–	–	IC50 [1, 4]: < 10 µM; IC50 [2, 5]: < 10 µM; IC50 at 48 h [3]: > 10 µM
O=C(Nc1cccc(-c2cc(-c3c(F)cccc3Cl)no2)c1)C(Cl)Cl [Compound 27, 2,2-Dichloro-N-[3-[3-(2-chloro-6-fluorophenyl)-5-isoxazolyl]phenyl]Acetamide]	–	–	IC50 [1, 4]: < 10 µM; IC50 [2, 5]: < 10 µM; IC50 at 48 h [3]: > 5 µM
O=C(CI)Nc1cccc(-c2cc(-c3c(Cl)cccc3Cl)no2)c1 [Compound 101, 2-Iodo-N-[3-[3-(2,6-dichlorophenyl)-5-isoxazolyl]phenyl]Acetamide]	–	–	IC50 [1, 4]: > 10 µM; IC50 [2, 5]: < 10 µM; IC50 at 48 h [3]: > 10 µM
COC(=O)c1ccc(Cl)c(-c2cc(-c3cccc(NC(=O)C(Cl)Cl)c3)on2)c1Cl [Compound 135, 2,2-Dichloro-N-[3-[3-(3-carbomethoxy-2,6-dichlorophenyl)-5-isoxazolyl]phenyl]Acetamide]	–	–	IC50 [1, 4]: > 10 µM; IC50 [2, 5]: > 10 µM; IC50 at 48 h [3]: > 10 µM
Cc1cccc(-c2cc(-c3cccc(NC(=O)C(Cl)Cl)c3)on2)c1C [Compound 163, 2,2-Dichloro-N-[3-[3-(2,3-dimethylphenyl)-5-isoxazolyl]phenyl]Acetamide]	–	–	IC50 [1, 4]: > 10 µM; IC50 [2, 5]: > 10 µM; IC50 at 48 h [3]: > 10 µM
CN(C)C(=O)NC1CCN(c2cccc(Cl)c2-c2cc(-c3cccc(NC(=O)C(Cl)Cl)c3)on2)C1 (stereo not drawn) [Compound 676]	< 10 µM	< 10 µM	–
COC(=O)c1cccc(Cl)c1-c1cc(-c2cccc(NC(=O)C(Cl)Cl)c2)on1 [Compound 680]	< 10 µM	< 10 µM	–
O=C(Nc1cccc(-c2cc(-c3c(Cl)cccc3C(=O)N3CCN(c4ccccc4)CC3)no2)c1)C(Cl)Cl [Compound 690]	< 10 µM	< 10 µM	–
CN(C)C(=O)c1cccc(Cl)c1-c1cc(-c2cccc(NC(=O)C(Cl)Cl)c2)on1 [Compound 692]	< 10 µM	< 10 µM	–
O=C(NCc1ccccn1)c1cccc(Cl)c1-c1cc(-c2cccc(NC(=O)C(Cl)Cl)c2)on1 [Compound 694]	< 10 µM	< 10 µM	–
COC(=O)[C@@H](NC(=O)c1cccc(Cl)c1-c1cc(-c2cccc(NC(=O)C(Cl)Cl)c2)on1)C(C)C [Compound 695]	< 10 µM	> 10 µM	–

SMILES	IC50 [1, 6]	IC50 [2, 7]	other results
COC(=O)C(NC(=O)c1cccc(Cl)c1-c1cc(-c2cccc(NC(=O)C(Cl)Cl)c2)on1)C(C)C (stereo not drawn) [Compound 696]	< 10 µM	< 10 µM	–
O=C(Nc1cccc(-c2cc(-c3c(Cl)cccc3C(=O)N3CCN(Cc4ccccc4)CC3)no2)c1)C(Cl)Cl [Compound 697]	< 10 µM	> 10 µM	–
CC(C)(C)OC(=O)N1CCN(C(=O)c2cccc(Cl)c2-c2cc(-c3cccc(NC(=O)C(Cl)Cl)c3)on2)CC1 [Compound 698]	< 10 µM	> 10 µM	–
O=C(Nc1cccc(-c2cc(-c3c(Cl)cccc3OC3CCCC3)no2)c1)C(Cl)Cl [Compound 699]	< 10 µM	< 10 µM	–
COc1cccc(C(=O)OC(C)(C)C)c1-c1cc(-c2cccc(NC(=O)C(Cl)Cl)c2)on1 [Compound 700]	> 10 µM	< 10 µM	–
CC(C)(C)OC(=O)c1cccc(F)c1-c1cc(-c2cccc(NC(=O)C(Cl)Cl)c2)on1 [Compound 701]	< 10 µM	< 10 µM	–
COc1cccc(C(=O)O)c1-c1cc(-c2cccc(NC(=O)C(Cl)Cl)c2)on1 [Compound 702]	< 10 µM	> 10 µM	–
O=C(O)c1cccc(F)c1-c1cc(-c2cccc(NC(=O)C(Cl)Cl)c2)on1 [Compound 703]	> 10 µM	> 10 µM	–
COC(=O)c1cccc(OC)c1-c1cc(-c2cccc(NC(=O)C(Cl)Cl)c2)on1 [Compound 704]	> 10 µM	> 10 µM	–
COC(=O)c1cccc(F)c1-c1cc(-c2cccc(NC(=O)C(Cl)Cl)c2)on1 [Compound 705]	< 10 µM	< 10 µM	–
CC(C)Oc1cccc(Cl)c1-c1cc(-c2cccc(NC(=O)C(Cl)Cl)c2)on1 [Compound 706]	< 10 µM	< 10 µM	–
Cc1oc(=O)oc1COC(=O)c1cccc(Cl)c1-c1cc(-c2cccc(NC(=O)C(Cl)Cl)c2)on1 [Compound 707]	< 10 µM	< 10 µM	–
CCOc1cccc(Cl)c1-c1cc(-c2cccc(NC(=O)C(Cl)Cl)c2)on1 [Compound 708]	< 10 µM	< 10 µM	–
O=C(Nc1cccc(-c2cc(-c3c(Cl)cccc3OCC3CC3)no2)c1)C(Cl)Cl [Compound 709]	< 10 µM	< 10 µM	–
O=C(Nc1cccc(-c2cc(-c3c(Cl)cccc3OC(F)F)no2)c1)C(Cl)Cl [Compound 710]	< 10 µM	< 10 µM	–
